What all share (assay type): binding
For one assay, the target named is T1, STAT5a SH2 domain (Homo sapiens, UniProt P42229).
T1 sequence (P42229 1-794): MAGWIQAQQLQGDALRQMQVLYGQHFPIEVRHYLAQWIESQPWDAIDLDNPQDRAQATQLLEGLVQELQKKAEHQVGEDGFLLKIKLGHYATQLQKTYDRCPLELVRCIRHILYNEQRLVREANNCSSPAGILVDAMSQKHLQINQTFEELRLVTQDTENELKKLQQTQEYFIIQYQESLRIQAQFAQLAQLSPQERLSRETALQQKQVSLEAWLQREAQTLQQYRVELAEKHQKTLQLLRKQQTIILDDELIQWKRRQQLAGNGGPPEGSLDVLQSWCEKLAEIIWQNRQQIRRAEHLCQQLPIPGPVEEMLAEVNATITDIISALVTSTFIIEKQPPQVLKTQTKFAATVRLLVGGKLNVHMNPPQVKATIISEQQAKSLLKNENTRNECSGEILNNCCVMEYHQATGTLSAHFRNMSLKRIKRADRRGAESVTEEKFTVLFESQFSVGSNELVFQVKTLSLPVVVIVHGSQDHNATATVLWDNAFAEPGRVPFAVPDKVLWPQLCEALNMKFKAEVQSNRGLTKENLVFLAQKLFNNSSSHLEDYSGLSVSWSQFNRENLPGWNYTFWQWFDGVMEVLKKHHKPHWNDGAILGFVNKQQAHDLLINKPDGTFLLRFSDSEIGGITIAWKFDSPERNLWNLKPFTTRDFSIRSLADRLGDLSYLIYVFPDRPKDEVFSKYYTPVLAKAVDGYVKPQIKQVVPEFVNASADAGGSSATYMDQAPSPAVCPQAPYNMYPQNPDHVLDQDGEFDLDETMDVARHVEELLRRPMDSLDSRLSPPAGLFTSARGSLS
Kind of assay: Fluorescence polarization assay, STAT5a SH2 domain. The note with it: mean ± s.d. In general terms: Polarisation of emitted light reports the rotation of a fluorescent probe.

A further assay deals with T2, STAT5b SH2 domain (Homo sapiens, UniProt P51692).
T2 sequence (P51692 1-787): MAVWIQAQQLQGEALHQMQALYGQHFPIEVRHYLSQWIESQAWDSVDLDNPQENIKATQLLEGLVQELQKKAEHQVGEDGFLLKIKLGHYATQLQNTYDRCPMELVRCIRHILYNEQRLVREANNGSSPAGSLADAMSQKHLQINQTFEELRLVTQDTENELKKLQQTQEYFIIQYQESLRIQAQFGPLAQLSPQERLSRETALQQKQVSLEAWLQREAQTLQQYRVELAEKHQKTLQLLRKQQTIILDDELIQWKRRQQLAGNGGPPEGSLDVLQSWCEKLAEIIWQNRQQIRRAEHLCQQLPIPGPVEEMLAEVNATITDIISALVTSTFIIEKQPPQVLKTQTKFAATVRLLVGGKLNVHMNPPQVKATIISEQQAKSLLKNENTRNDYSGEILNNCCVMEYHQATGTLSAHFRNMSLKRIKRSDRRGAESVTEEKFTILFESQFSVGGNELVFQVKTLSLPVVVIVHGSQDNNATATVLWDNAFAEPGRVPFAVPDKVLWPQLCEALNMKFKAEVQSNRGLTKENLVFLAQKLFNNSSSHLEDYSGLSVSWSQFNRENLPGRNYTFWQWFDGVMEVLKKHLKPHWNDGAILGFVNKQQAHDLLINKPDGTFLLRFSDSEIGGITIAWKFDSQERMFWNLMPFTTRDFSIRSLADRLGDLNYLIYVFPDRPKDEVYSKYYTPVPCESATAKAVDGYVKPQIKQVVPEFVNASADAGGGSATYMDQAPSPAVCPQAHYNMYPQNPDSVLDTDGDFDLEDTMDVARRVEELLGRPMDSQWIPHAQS
Kind of assay: Fluorescence polarization assay, STAT5b SH2 domain.

Another assay concerns the target T3, STAT1 (Homo sapiens, UniProt P42224).
T3 sequence (P42224 1-750): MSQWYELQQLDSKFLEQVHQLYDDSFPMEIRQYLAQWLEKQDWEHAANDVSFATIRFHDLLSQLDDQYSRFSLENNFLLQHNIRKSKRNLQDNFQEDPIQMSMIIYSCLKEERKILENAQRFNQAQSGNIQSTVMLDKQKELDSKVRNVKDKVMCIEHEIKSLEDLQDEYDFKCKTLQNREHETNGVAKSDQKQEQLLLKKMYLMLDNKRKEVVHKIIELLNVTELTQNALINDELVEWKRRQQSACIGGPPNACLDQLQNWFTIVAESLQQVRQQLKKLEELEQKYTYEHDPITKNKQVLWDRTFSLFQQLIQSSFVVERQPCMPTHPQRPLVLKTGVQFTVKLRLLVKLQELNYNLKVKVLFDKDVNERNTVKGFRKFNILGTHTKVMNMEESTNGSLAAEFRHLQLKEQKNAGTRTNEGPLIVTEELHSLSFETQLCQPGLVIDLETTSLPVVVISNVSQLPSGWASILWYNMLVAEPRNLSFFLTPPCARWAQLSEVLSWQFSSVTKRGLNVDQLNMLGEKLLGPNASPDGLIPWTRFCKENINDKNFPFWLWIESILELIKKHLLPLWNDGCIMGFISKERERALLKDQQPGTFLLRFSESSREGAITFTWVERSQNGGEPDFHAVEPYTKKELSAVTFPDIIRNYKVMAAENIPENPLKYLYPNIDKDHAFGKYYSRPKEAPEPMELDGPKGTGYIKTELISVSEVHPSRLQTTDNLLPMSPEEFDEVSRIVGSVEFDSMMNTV
The assay can be described thus: Fluorescence polarization assay, STAT1.

The structures appear in SMILES notation.

As a reminder, the Ki is the equilibrium dissociation constant of an inhibitor or competing ligand from its target. High values mean weaker binding, low ones tighter binding. In general, IC50 refers to the point on the concentration scale where inhibition reaches its midpoint. Read a low IC50 as inhibition by little substance. `O=C(COc1ccc(C(=O)Nc2ccc(Oc3ccccc3)cc2)cc1)NCc1ccc(OP(=O)(O)O)c(OP(=O)(O)O)c1` [compound 4, 4-((2-(4-((4-phenoxyphenyl)carbamoyl)phenoxy)acetamido)methyl)-1,2-phenylene bis(dihydrogen phosphate)]: the Ki at STAT5a SH2 domain (converted from IC50 using the published equation, n = 3) came to 1.3 ± 0.1 µM; at STAT5b SH2 domain (abstract, rounded), 0.009 µM; on STAT5b SH2 domain (converted from IC50 using the published equation, mean ± s.d., n = 3), 0.0088 ± 0.0003 µM; on STAT1 (converted from IC50 using the published equation), 22.8 ± 1 µM. The IC50 against STAT5a SH2 domain (fluorescence polarization, three independent experiments) is 2.7 ± 0.2 µM; on STAT5b SH2 domain (fluorescence polarization, mean ± s.d., three independent experiments) it was 0.082 ± 0.003 µM; at STAT1 (fluorescence polarization), 46 ± 2 µM. In addition, the “fold reduced Ki value relative to 2” value at STAT5b SH2 domain (STAT5b Ki) is listed as 5 fold. For the same compound, at STAT5b SH2 domain (STAT5b Ki), the “fold reduction in Ki value relative to 3” value is “more than 10 fold”.
